Assay results as given in PubChem BioAssay (NCI).
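These data come from cells grown in 96-well plates and exposed to compound for 48 hours at five concentrations. TGI is the concentration that stops growth completely.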

Legend:
Assay in all cases: growth of human tumour cells (NCI), 48 h
786-0 renal = test system: 786-0 renal
A498 renal = test system: A498 renal
ACHN renal = test system: ACHN renal
BT-549 breast = test system: BT-549 breast
CAKI-1 renal = test system: CAKI-1 renal
CCRF-CEM leukemia = test system: CCRF-CEM leukemia
COLO 205 colon = test system: COLO 205 colon
DU-145 prostate = test system: DU-145 prostate
EKVX NSCLC = test system: EKVX NSCLC
HCC-2998 colon = test system: HCC-2998 colon
HCT-116 colon = test system: HCT-116 colon
HCT-15 colon = test system: HCT-15 colon
HL-60(TB) leukemia = test system: HL-60(TB) leukemia
HOP-62 NSCLC = test system: HOP-62 NSCLC
HOP-92 NSCLC = test system: HOP-92 NSCLC
HS 578T breast = test system: HS 578T breast
HT29 colon = test system: HT29 colon
IGROV1 ovarian = test system: IGROV1 ovarian
KM12 colon = test system: KM12 colon
LOX IMVI melanoma = test system: LOX IMVI melanoma
M14 melanoma = test system: M14 melanoma
MALME-3M melanoma = test system: MALME-3M melanoma
MCF7 breast = test system: MCF7 breast
MDA-MB-231 breast = test system: MDA-MB-231 breast
MDA-MB-435 = test system: MDA-MB-435
MDA-N = test system: MDA-N
MOLT-4 leukemia = test system: MOLT-4 leukemia
NCI-H226 lung = test system: NCI-H226 lung
NCI-H23 lung = test system: NCI-H23 lung
NCI-H460 lung = test system: NCI-H460 lung
NCI-H522 lung = test system: NCI-H522 lung
NCI/ADR-RES ovarian = test system: NCI/ADR-RES ovarian
OVCAR-3 ovarian = test system: OVCAR-3 ovarian
OVCAR-4 ovarian = test system: OVCAR-4 ovarian
OVCAR-5 ovarian = test system: OVCAR-5 ovarian
OVCAR-8 ovarian = test system: OVCAR-8 ovarian
RPMI-8226 leukemia = test system: RPMI-8226 leukemia
SF-268 CNS = test system: SF-268 CNS
SF-295 CNS = test system: SF-295 CNS
SF-539 CNS = test system: SF-539 CNS
SK-MEL-28 melanoma = test system: SK-MEL-28 melanoma
SK-MEL-5 melanoma = test system: SK-MEL-5 melanoma
SK-OV-3 ovarian = test system: SK-OV-3 ovarian
SN12C renal = test system: SN12C renal
SNB-19 CNS = test system: SNB-19 CNS
SNB-75 CNS = test system: SNB-75 CNS
SR leukemia = test system: SR leukemia
SW-620 colon = test system: SW-620 colon
T-47D breast = test system: T-47D breast
TK-10 renal = test system: TK-10 renal
U251 CNS = test system: U251 CNS
UACC-257 melanoma = test system: UACC-257 melanoma
UACC-62 melanoma = test system: UACC-62 melanoma
UO-31 renal = test system: UO-31 renal
A549 NSCLC = test system: A549 NSCLC
K-562 leukemia = test system: K-562 leukemia
RXF 393 renal = test system: RXF 393 renal
SK-MEL-2 melanoma = test system: SK-MEL-2 melanoma
PC-3 prostate = test system: PC-3 prostate

CC(=O)NNc1nc(C)c(C(=O)/C=C/C=C/c2ccccc2)s1
TGI (786-0 renal): > 100 µM | TGI (A498 renal): > 100 µM | TGI (ACHN renal): > 100 µM | TGI (BT-549 breast): > 100 µM | TGI (CAKI-1 renal): > 100 µM | TGI (CCRF-CEM leukemia): > 100 µM | TGI (COLO 205 colon): > 100 µM | TGI (DU-145 prostate): > 100 µM | TGI (EKVX NSCLC): > 100 µM | TGI (HCC-2998 colon): > 100 µM | TGI (HCT-116 colon): > 100 µM | TGI (HCT-15 colon): > 100 µM | TGI (HL-60(TB) leukemia): > 100 µM | TGI (HOP-62 NSCLC): > 100 µM | TGI (HOP-92 NSCLC): > 100 µM | TGI (HS 578T breast): > 100 µM | TGI (HT29 colon): > 100 µM | TGI (IGROV1 ovarian): > 100 µM | TGI (KM12 colon): > 100 µM | TGI (LOX IMVI melanoma): > 100 µM | TGI (M14 melanoma): > 100 µM | TGI (MALME-3M melanoma): > 100 µM | TGI (MCF7 breast): > 100 µM | TGI (MDA-MB-231 breast): > 100 µM | TGI (MDA-MB-435): > 100 µM | TGI (MDA-N): > 100 µM | TGI (MOLT-4 leukemia): > 100 µM | TGI (NCI-H226 lung): > 100 µM | TGI (NCI-H23 lung): > 100 µM | TGI (NCI-H460 lung): > 100 µM | TGI (NCI-H522 lung): > 100 µM | TGI (NCI/ADR-RES ovarian): > 100 µM | TGI (OVCAR-3 ovarian): > 100 µM | TGI (OVCAR-4 ovarian): > 100 µM | TGI (OVCAR-5 ovarian): > 100 µM | TGI (OVCAR-8 ovarian): > 100 µM | TGI (RPMI-8226 leukemia): > 100 µM | TGI (SF-268 CNS): > 100 µM | TGI (SF-295 CNS): > 100 µM | TGI (SF-539 CNS): > 100 µM | TGI (SK-MEL-28 melanoma): > 100 µM | TGI (SK-MEL-5 melanoma): > 100 µM | TGI (SK-OV-3 ovarian): > 100 µM | TGI (SN12C renal): > 100 µM | TGI (SNB-19 CNS): > 100 µM | TGI (SNB-75 CNS): > 100 µM | TGI (SR leukemia): > 100 µM | TGI (SW-620 colon): > 100 µM | TGI (T-47D breast): > 100 µM | TGI (TK-10 renal): > 100 µM | TGI (U251 CNS): > 100 µM | TGI (UACC-257 melanoma): > 100 µM | TGI (UACC-62 melanoma): > 100 µM | TGI (UO-31 renal): > 100 µM

O=C1/C(=C\c2cccc(Oc3ccccc3)c2)SC(c2ccccc2)N1c1ccccc1Cl (configuration not stated)
TGI (786-0 renal): > 100 µM | TGI (A498 renal): > 100 µM | TGI (A549 NSCLC): > 100 µM | TGI (ACHN renal): > 100 µM | TGI (BT-549 breast): 96.6 µM | TGI (CAKI-1 renal): > 100 µM | TGI (CCRF-CEM leukemia): 38.4 µM | TGI (COLO 205 colon): 49 µM | TGI (DU-145 prostate): > 100 µM | TGI (EKVX NSCLC): > 100 µM | TGI (HCC-2998 colon): 78.9 µM | TGI (HCT-116 colon): 50.7 µM | TGI (HCT-15 colon): > 100 µM | TGI (HL-60(TB) leukemia): > 100 µM | TGI (HOP-62 NSCLC): > 100 µM | TGI (HOP-92 NSCLC): 57.5 µM | TGI (HS 578T breast): 60.2 µM | TGI (HT29 colon): 49.9 µM | TGI (K-562 leukemia): > 100 µM | TGI (KM12 colon): 98.8 µM | TGI (LOX IMVI melanoma): 75.8 µM | TGI (M14 melanoma): > 100 µM | TGI (MALME-3M melanoma): > 100 µM | TGI (MCF7 breast): > 100 µM | TGI (MDA-MB-231 breast): > 100 µM | TGI (MDA-MB-435): 68 µM | TGI (MDA-N): 54.2 µM | TGI (MOLT-4 leukemia): > 100 µM | TGI (NCI-H226 lung): > 100 µM | TGI (NCI-H23 lung): 69.7 µM | TGI (NCI-H460 lung): > 100 µM | TGI (NCI-H522 lung): 48.5 µM | TGI (NCI/ADR-RES ovarian): > 100 µM | TGI (OVCAR-3 ovarian): > 100 µM | TGI (OVCAR-4 ovarian): > 100 µM | TGI (OVCAR-5 ovarian): > 100 µM | TGI (OVCAR-8 ovarian): 79.9 µM | TGI (RPMI-8226 leukemia): 55.3 µM | TGI (RXF 393 renal): 78.5 µM | TGI (SF-268 CNS): > 100 µM | TGI (SF-295 CNS): > 100 µM | TGI (SF-539 CNS): 39 µM | TGI (SK-MEL-2 melanoma): 92.4 µM | TGI (SK-MEL-28 melanoma): > 100 µM | TGI (SK-MEL-5 melanoma): 29.8 µM | TGI (SK-OV-3 ovarian): > 100 µM | TGI (SN12C renal): 96.9 µM | TGI (SNB-19 CNS): 76.4 µM | TGI (SR leukemia): > 100 µM | TGI (SW-620 colon): > 100 µM | TGI (T-47D breast): > 100 µM | TGI (TK-10 renal): > 100 µM | TGI (U251 CNS): 78.5 µM | TGI (UACC-257 melanoma): 85.8 µM | TGI (UACC-62 melanoma): > 100 µM | TGI (UO-31 renal): > 100 µM

Cc1ccc(N=C2SC(=S)N(CCC[N+](C)(C)C)C2=Nc2ccc(C)cc2)cc1
TGI (786-0 renal): 30.3 µM | TGI (A498 renal): 40.7 µM | TGI (A549 NSCLC): 33.8 µM | TGI (ACHN renal): 30.1 µM | TGI (BT-549 breast): 15.4 µM | TGI (CCRF-CEM leukemia): 58 µM | TGI (COLO 205 colon): 87.6 µM | TGI (EKVX NSCLC): 38.5 µM | TGI (HCC-2998 colon): 39.6 µM | TGI (HCT-116 colon): 25.4 µM | TGI (HCT-15 colon): 31.4 µM | TGI (HL-60(TB) leukemia): 5.86 µM | TGI (HOP-62 NSCLC): 52.7 µM | TGI (HOP-92 NSCLC): 31.6 µM | TGI (HS 578T breast): 24.6 µM | TGI (HT29 colon): 32.9 µM | TGI (IGROV1 ovarian): 26.6 µM | TGI (K-562 leukemia): 32.9 µM | TGI (KM12 colon): 50.1 µM | TGI (M14 melanoma): 46.1 µM | TGI (MALME-3M melanoma): 41.9 µM | TGI (MCF7 breast): 48.3 µM | TGI (MDA-MB-231 breast): 32.3 µM | TGI (MDA-N): 28.5 µM | TGI (MOLT-4 leukemia): 37.8 µM | TGI (NCI-H226 lung): 47 µM | TGI (NCI-H23 lung): 32.7 µM | TGI (NCI-H460 lung): 36.3 µM | TGI (OVCAR-5 ovarian): 29.7 µM | TGI (OVCAR-8 ovarian): 38.8 µM | TGI (PC-3 prostate): 28.3 µM | TGI (RPMI-8226 leukemia): 32 µM | TGI (RXF 393 renal): 18 µM | TGI (SK-MEL-2 melanoma): 35.9 µM | TGI (SK-MEL-28 melanoma): 23.7 µM | TGI (SK-MEL-5 melanoma): 27.5 µM | TGI (SN12C renal): 29.5 µM | TGI (SNB-19 CNS): 27.7 µM | TGI (SNB-75 CNS): 22.6 µM | TGI (SR leukemia): 27 µM | TGI (SW-620 colon): 41.4 µM | TGI (T-47D breast): 18.7 µM | TGI (TK-10 renal): 36.8 µM | TGI (U251 CNS): 26.6 µM | TGI (UACC-257 melanoma): 32 µM | TGI (UACC-62 melanoma): 22.3 µM | TGI (UO-31 renal): 37.8 µM
